Measured values published in PMC8364251 (Pharmacological Research, 2021).

Tests used:
Type in all cases: cell-based, SARS-CoV-2
[1] = system: N439K mutant S-pseudotyped lentivirus
[2] = system: N501Y mutant S-pseudotyped lentivirus
[3] = system: Y453F mutant S-pseudotyped lentivirus

SMILES: O=C(O[C@@H]1Cc2c(O)cc(O)cc2O[C@@H]1c1cc(O)c(O)c(O)c1)c1cc(O)c(O)c(O)c1 [EGCG, epigallocatechin gallate]
- inhibition of mutant pseudovirus infection [1]: effectively inhibited the infection of all mutants
- inhibition of mutant pseudovirus infection [2]: effectively inhibited the infection of all mutants
- inhibition of mutant pseudovirus infection [3]: effectively inhibited the infection of all mutants
